Source: PubChem BioAssay AID1996
≈ marks a conversion by molar mass, not a printed value.

Settings: buffer; pH 7.4; 200.0 µM
In the case of `O=C(O)c1cccc(NC(=S)NC(=O)c2cncc(Br)c2)c1`, the solubility kinetic is reported as > 57 µg/mL. With `O=C(Cn1cc(C(F)(F)F)ccc1=O)OCC(=O)c1ccc[nH]1` the solubility kinetic was > 49.2 µg/mL. In the case of `CCc1ccc(OC)c(-c2csc(N)n2)c1`, the solubility kinetic is reported as > 35.1 µg/mL. For `O=C(NC1CCCN(Cc2ccccc2F)C1)C1CCC1` (centres undefined), the solubility kinetic was > 43.6 µg/mL. In the case of `Cn1c(SCC(N)=O)nnc1-c1ccc(C(C)(C)C)cc1`, the solubility kinetic is reported as > 45.7 µg/mL. With `Cc1cccc(N2C(=O)/C(=C/c3ccccn3)SC2=S)c1` the solubility kinetic was < 0.3 µg/mL. In the case of `CCc1cc2c(=O)oc(-c3ccc(F)cc3)nc2s1`, the solubility kinetic is reported as < 0.6 µg/mL. With `O=C(c1cccc([N+](=O)[O-])c1)N1CCCC(C(=O)N2CCCCC2)C1` (centres undefined) the solubility kinetic was > 51.8 µg/mL. `CCN(c1ccccc1)S(=O)(=O)c1ccc(C(=O)NCc2ccco2)cc1` gave a solubility kinetic of 32 µg/mL (≈ 83.2 µM). In the case of `Cc1cc(N2CCOCC2)nc2ccc(NC(=S)N3CCCCC3C)cc12` (centres undefined), the solubility kinetic is reported as 41.5 µg/mL (≈ 108 µM). `COc1cccc(OC)c1C(=O)OCC(=O)N(C)c1ccccc1` gave a solubility kinetic of 43 µg/mL (≈ 131 µM). For `O=C(O)CN1C(=O)NC2(CCOc3ccccc32)C1=O` (centres undefined), the solubility kinetic was > 41.4 µg/mL. In the case of `CC(C)(C)C(=O)Nc1ccc(S(=O)(=O)NC2=NCCCCC2)cc1`, the solubility kinetic is reported as > 52.7 µg/mL. For `O=C(O)CCCc1c(-[n+]2ccccc2)[nH]c2ccccc12.[Cl-]`, the solubility kinetic was > 47.5 µg/mL. In the case of `CCc1ccc(NC2=NCCCS2)cc1`, the solubility kinetic is reported as > 33 µg/mL. With `CCNc1nc(NCc2ccccc2)nc(SCC(N)=O)n1` the solubility kinetic was 42.2 µg/mL (≈ 133 µM). For `CC(C)NC(=O)c1sc2c(c1C(=O)Nc1cccnc1)CCCC2`, the solubility kinetic was 6.4 µg/mL (≈ 18.6 µM). `CCCc1cc(C(=O)Nc2cccc(Cl)c2C)no1` showed a solubility kinetic of 16.4 µg/mL (≈ 58.8 µM). For `Cc1ccc(N2CC(O)Cn3c2nc2c3c(=O)n(C)c(=O)n2C)cc1` (centres undefined), the solubility kinetic was 24.5 µg/mL (≈ 71.8 µM). Compound `Fc1cc(Br)ccc1NC(=S)Nc1cccnc1` has a solubility kinetic of 44.8 µg/mL (≈ 137 µM). `COc1ccc(CCNC(=O)CCCc2ccccc2)cc1` gave a solubility kinetic of 35.6 µg/mL (≈ 120 µM). For `COC(=O)C1CCN(CC(=O)NC(=O)Nc2ccccc2F)CC1`, the solubility kinetic was > 50.6 µg/mL. In the case of `CCCCC(=O)Nc1cc(OC)c(NC(=S)NC)cc1OC`, the solubility kinetic is reported as > 48.8 µg/mL. Work on `NC(=O)CN1CCN(c2cccc(Cl)c2)CC1` yielded a solubility kinetic of 33.9 µg/mL (≈ 134 µM). For `Cc1nc(N)sc1-c1csc(Nc2cccc(C(=O)O)c2)n1`, the solubility kinetic was > 49.9 µg/mL. In the case of `O=C(/C=C/c1ccccc1)NC(=O)c1ccccc1O`, the solubility kinetic is reported as 1.4 µg/mL (≈ 5.24 µM). For `S=C(NCc1ccncc1)Nc1ccc(Br)cc1Cl`, the solubility kinetic was 40.9 µg/mL (≈ 115 µM). Work on `Cc1cccc(N2C(=O)CC(n3ccnc3)C2=O)c1C` (centres undefined) yielded a solubility kinetic of 32.9 µg/mL (≈ 122 µM). In the case of `CCOc1ccc2[nH]c3c(NCCO)ncnc3c2c1`, the solubility kinetic is reported as > 40.8 µg/mL. Compound `CC(NC(=O)CSc1ccccc1)c1ccccc1` (centres undefined) has a solubility kinetic of 37.1 µg/mL (≈ 137 µM). With `Cc1cc(NC(=O)C(C)Oc2ccc(C(C)(C)C)cc2)no1` (centres undefined) the solubility kinetic was 4 µg/mL (≈ 13.2 µM). For `Cc1cn(Cc2ccccc2Cn2cc(C)c(=O)[nH]c2=O)c(=O)[nH]c1=O`, the solubility kinetic was 52.3 µg/mL (≈ 148 µM). In the case of `COC(=O)c1ccc(NC(=O)c2cccc(NC(=O)c3ccco3)c2)cc1`, the solubility kinetic is reported as < 0.4 µg/mL. Compound `Cc1cc(=O)[nH]c(SCC(=O)NCCC2=CCCCC2)n1` has a solubility kinetic of 38.8 µg/mL (≈ 126 µM). With `O=C(COC(=O)c1ccc(F)c(S(=O)(=O)N2CCOCC2)c1)NCc1ccc(Cl)cc1` the solubility kinetic was 7.1 µg/mL (≈ 15.1 µM). Work on `COc1ccc([N+](=O)[O-])cc1NC(=O)c1ccco1` yielded a solubility kinetic of 4.3 µg/mL (≈ 16.4 µM). Work on `CC1Oc2ccccc2OC1C(=O)Nc1nccs1` (centres undefined) yielded a solubility kinetic of 18.1 µg/mL (≈ 65.5 µM). In the case of `CC(C)CN(C(=O)CSc1nc2ccccc2[nH]1)C1CCS(=O)(=O)C1` (centres undefined), the solubility kinetic is reported as > 57.2 µg/mL. `Cc1ccc(N2C(=O)CCC2=O)c(C)c1` showed a solubility kinetic of 28 µg/mL (≈ 138 µM). For `Cc1ccnc(SC2CC(=O)N(c3ccc(Cl)cc3)C2=O)n1` (centres undefined), the solubility kinetic was > 50.1 µg/mL. For `Cc1ccc(C)c(N2C(=O)CC(Cc3ccccc3)C2=O)c1.Cl` (centres undefined), the solubility kinetic was > 49.5 µg/mL. Work on `O=C(C1=C(O)C(=O)N(c2ncccn2)C1c1ccc(F)cc1)c1ccco1` (centres undefined) yielded a solubility kinetic of 53.1 µg/mL (≈ 145 µM). With `Cc1ccc(-n2nc(C)cc2NC(=O)CC#N)cc1` the solubility kinetic was > 38.1 µg/mL. `CCCC(=O)Nc1cc(C)cn(Cc2c(F)cccc2Cl)c1=O` gave a solubility kinetic of 41.3 µg/mL (≈ 123 µM). Compound `Cc1cc(C)c2cc(C(=O)N3CCc4ccccc4C3)[nH]c2c1` has a solubility kinetic of 0.5 µg/mL (≈ 1.64 µM). `O=C(CSc1ccc([N+](=O)[O-])cc1)NCC1CCCCC1` showed a solubility kinetic of 8.2 µg/mL (≈ 26.6 µM). With `Cc1ccc(OCCn2cc(/C=C/C(=O)O)c3ccccc32)cc1` the solubility kinetic was > 48.2 µg/mL. `Cc1cc(C)cc(OCC(=O)Nc2cc(C)on2)c1` gave a solubility kinetic of 1.5 µg/mL (≈ 5.76 µM). In the case of `Cc1cc(C)c2oc(C(=O)N3CCN(C)CC3)cc(=O)c2c1`, the solubility kinetic is reported as 27.2 µg/mL (≈ 90.6 µM). For `O=C(Cc1ccc(F)cc1)OCN1C(=O)c2ccccc2C1=O`, the solubility kinetic was 39.8 µg/mL (≈ 127 µM). Compound `COc1ccc(N2C(=O)CC(SCc3ccc(Cl)cc3)C2=O)cc1` (centres undefined) has a solubility kinetic of 0.9 µg/mL (≈ 2.49 µM). In the case of `O=C(O)/C=C/c1ccccc1[N+](=O)[O-]`, the solubility kinetic is reported as > 29 µg/mL. In the case of `Cc1nonc1-c1csc(N)n1`, the solubility kinetic is reported as > 27.3 µg/mL. Compound `Cc1cc(NC(=O)c2ccc3nccnc3c2)ccc1Br` has a solubility kinetic of 4.5 µg/mL (≈ 13.2 µM). With `COc1ccc(NC(=O)c2cc(C)cc(C)c2)cc1[N+](=O)[O-]` the solubility kinetic was < 0.3 µg/mL. With `COc1ccccc1-n1ccnc(SCC(=O)NC2CCCC2)c1=O` the solubility kinetic was > 53.9 µg/mL. With `Cn1c(=O)c2c(ncn2CC(=O)Nc2cc(S(=O)(=O)N3CCCCC3)ccc2Cl)n(C)c1=O` the solubility kinetic was 10.5 µg/mL (≈ 21.2 µM). `CC(C)(CCC(=S)N1CCOCC1)C1CCCCC1` gave a solubility kinetic of 4.1 µg/mL (≈ 14.5 µM). In the case of `COc1ccc2nc(C)c(C(N)=O)cc2c1`, the solubility kinetic is reported as > 32.4 µg/mL.
